Among the test systems are SR; NCI-H226; HCT-15; NCI-H23; CAKI-1; MDA-N; UACC-62; HCC 2998; TK-10; NCI/ADR-RES; U-251; OVCAR-4; OVCAR-8; MOLT-4; ACHN; A549; EKVX; NCI-H522; SF-295; Hs-578T.
Assay in all cases: DTP human tumour cell line panel, 48 h

These results are taken from ChEMBL document CHEMBL1201862, “PubChem BioAssay data set” (2004).

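Dose response: 5 concentrations. Exposure: 48 h. Format: 96-well plates. Endpoint: linear interpolation; highest concentration if not reached. GI50 is the concentration that inhibits growth by half.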 Activity calls are given as the source filed them. No stated cut-off is given here; in the data, active = GI50 up to about 1.1 µM and inactive = higher. Bounds are passed on as bounds.

As a reminder, the GI50 is the concentration giving 50% growth inhibition. Turning to `Cc1ccccc1C1OC1C(=O)c1ccccc1N` (configuration not stated), the GI50 in the assay with SR was > 100 µM (inactive); with NCI-H226 it was > 100 µM (inactive); in the assay on HCT-15, 53.3 µM; in the assay with NCI-H23, 38.6 µM (inactive); with CAKI-1 it was 45.8 µM (inactive); with MDA-N, 14.1 µM (inactive). In addition, the GI50 was 52.8 µM (inactive) in the assay on UACC-62; > 100 µM (inactive) in the assay on HCC 2998; > 100 µM (inactive) with TK-10; 51.3 µM (inactive) with NCI/ADR-RES; > 100 µM (inactive) in the assay on U-251; 47.5 µM (inactive) in the assay with OVCAR-4. For the same molecule, the GI50 in the assay with OVCAR-8 was > 100 µM (inactive); in the assay with MOLT-4, 39.3 µM (inactive); in the assay with ACHN it was > 100 µM (inactive); in the assay on A549, 48 µM (inactive).

For `COC(=O)C(C(=O)C(=O)Nc1ccc([N+](=O)[O-])cc1)c1nc2ccc([N+](=O)[O-])cc2nc1O` (configuration not stated), the GI50 is > 100 µM (inactive) in the assay on SR; > 100 µM (inactive) with NCI-H226; > 100 µM (inactive) in the assay on EKVX; 14.1 µM (inactive) in the assay with NCI-H522; above 100 µM in the assay with HCT-15; > 100 µM (inactive) in the assay with SF-295. In addition, the GI50 in the assay on NCI-H23 is > 100 µM (inactive); with CAKI-1, > 100 µM (inactive); in the assay with UACC-62, 63.1 µM (inactive); in the assay on HCC 2998, > 100 µM (inactive); with TK-10, > 100 µM (inactive); in the assay on U-251 it was > 100 µM (inactive). The GI50 with OVCAR-4, in the assay with OVCAR-8, in the assay with MOLT-4, in the assay with ACHN and in the assay on A549 was > 100 µM (inactive) each time.

As to `CN(CCN1C(=O)c2cccc3cccc(c23)C1=O)CCN1C(=O)c2cccc3cccc(c23)C1=O`, the GI50 is 3.37 µM (inactive) in the assay with SR; 17.5 µM (inactive) in the assay on NCI-H226; > 100 µM (inactive) in the assay with EKVX; 13.2 µM (inactive) with NCI-H522; 0.178 µM with HCT-15; 12.8 µM (inactive) with SF-295. Further, the GI50 in the assay on NCI-H23 is 16.9 µM (inactive); in the assay on CAKI-1, > 100 µM (inactive); in the assay with UACC-62, 30 µM (inactive); in the assay with TK-10 it was 14.1 µM (inactive); with NCI/ADR-RES, 13.5 µM (inactive); in the assay with U-251, 12.2 µM (inactive). Also, the GI50 in the assay with OVCAR-4 is > 100 µM (inactive); in the assay on OVCAR-8 it was 5.55 µM (inactive); with MOLT-4, 7.73 µM (inactive); with ACHN, 7.69 µM (inactive); in the assay on Hs-578T, 12 µM (inactive); in the assay with A549, 27.6 µM (inactive).

Regarding `C[N+]1([O-])CCC(O)(C2CC2)CC1` (configuration not stated), the GI50 was > 100 µM (inactive) in the assay on SR; > 100 µM (inactive) in the assay with NCI-H226; > 100 µM (inactive) in the assay with EKVX; above 100 µM in the assay with HCT-15; > 100 µM (inactive) with SF-295; > 100 µM (inactive) with NCI-H23. For the same molecule, the GI50 in the assay with CAKI-1, in the assay on UACC-62, in the assay on HCC 2998, in the assay on TK-10, in the assay on NCI/ADR-RES and in the assay with U-251 was > 100 µM (inactive) each time. The GI50 in the assay on OVCAR-4, with OVCAR-8, in the assay with MOLT-4, with ACHN, in the assay with Hs-578T and in the assay with A549 was > 100 µM (inactive) each time.

Consider `CCC(=O)NC(Nc1cc(C)on1)(C(F)(F)F)C(F)(F)F`, for which the GI50 with SR was > 100 µM (inactive); in the assay with NCI-H226 it was > 100 µM (inactive); in the assay with EKVX, > 100 µM (inactive); in the assay with NCI-H522 it was > 100 µM (inactive); in the assay on HCT-15, above 100 µM; in the assay on NCI-H23 it was > 100 µM (inactive). Further, the GI50 in the assay on CAKI-1, in the assay with UACC-62, in the assay with HCC 2998, in the assay on TK-10, with NCI/ADR-RES and with U-251 was > 100 µM (inactive) in each case. The GI50 in the assay on OVCAR-8, in the assay with MOLT-4, in the assay on ACHN, in the assay with Hs-578T and with A549 was > 100 µM (inactive) each time.

Turning to `C=CCCCCCC(O)C(O)C/C=C\C/C=C\CC` (configuration not stated), the GI50 was > 9.66 µM (inactive) in the assay on SR; > 18.8 µM (inactive) in the assay on NCI-H226; > 18.8 µM (inactive) in the assay with EKVX; > 18.8 µM (inactive) with NCI-H522; above 18.8 µM in the assay on HCT-15; > 18.8 µM (inactive) in the assay on SF-295. For the same molecule, the GI50 with NCI-H23 is > 17.8 µM (inactive); in the assay with CAKI-1 it was > 18.8 µM (inactive); in the assay with UACC-62, > 18.8 µM (inactive); in the assay with HCC 2998 it was > 18.8 µM (inactive); in the assay on TK-10, > 18.8 µM (inactive); in the assay with U-251 it was > 18.8 µM (inactive). Besides, the GI50 with OVCAR-4 is > 18.8 µM (inactive); with OVCAR-8, > 18.8 µM (inactive); in the assay with MOLT-4, > 14.9 µM (inactive); in the assay with ACHN, > 18.8 µM (inactive); in the assay with A549 it was > 18.8 µM (inactive).

Take `O=c1[nH]cc(NCCCl)c(=O)[nH]1`: the GI50 in the assay on NCI-H226 is > 100 µM (inactive); in the assay on EKVX, > 100 µM (inactive); with NCI-H522, > 100 µM (inactive); in the assay on HCT-15 it was above 100 µM; in the assay on SF-295, > 100 µM (inactive); with NCI-H23, > 100 µM (inactive). Besides, the GI50 with CAKI-1, in the assay with MDA-N, with UACC-62, in the assay with HCC 2998, in the assay with TK-10 and in the assay with NCI/ADR-RES was > 100 µM (inactive) in each case. Besides, the GI50 in the assay on U-251, in the assay with OVCAR-4, in the assay with OVCAR-8, in the assay with MOLT-4, in the assay with ACHN and in the assay with A549 was > 100 µM (inactive) throughout.

On to `Cc1cc(C)c(N[S+]([O-])c2cccc([N+](=O)[O-])c2)c(C)c1` (configuration not stated), for which the GI50 with SR was > 100 µM (inactive); in the assay with NCI-H226 it was > 100 µM (inactive); in the assay on HCT-15 it was above 100 µM; in the assay with SF-295 it was > 100 µM (inactive); with NCI-H23, > 100 µM (inactive); in the assay with TK-10, > 100 µM (inactive). Moreover, the GI50 with NCI/ADR-RES, with U-251, in the assay on OVCAR-8, in the assay on MOLT-4, in the assay with ACHN and in the assay with A549 was > 100 µM (inactive) throughout.

Consider `O=C1Nc2cccc(Cl)c2/C1=C\c1cccnc1`, for which the GI50 is 17.6 µM (inactive) in the assay on EKVX; 9.66 µM (inactive) in the assay with NCI-H522; 6.62 µM in the assay on HCT-15; 16.7 µM (inactive) in the assay with SF-295; 3.75 µM (inactive) in the assay on NCI-H23; 10.2 µM (inactive) with CAKI-1. Also, the GI50 is 2.15 µM (inactive) in the assay on HCC 2998; 17.8 µM (inactive) in the assay with TK-10; 4.43 µM (inactive) with NCI/ADR-RES; 6.47 µM (inactive) in the assay on U-251; 12.7 µM (inactive) with OVCAR-4; 4.33 µM (inactive) in the assay on OVCAR-8. Further, the GI50 in the assay on MOLT-4 is 4.23 µM (inactive); in the assay with ACHN it was 10.8 µM (inactive); in the assay with Hs-578T, 14.2 µM (inactive); in the assay on A549, 11.1 µM (inactive).

Take `CC(=O)NC(CCCOC(C)=O)C(=O)NC(CCCOC(C)=O)C(=O)NC(CCCOC(C)=O)C(=O)NC(Cc1ccc([N+](=O)[O-])cc1)C(=O)NCC(=O)OCc1ccccc1` (configuration not stated): the GI50 with SR is 74 µM (inactive); in the assay on NCI-H226, > 100 µM (inactive); with EKVX it was > 100 µM (inactive); in the assay on NCI-H522, > 100 µM (inactive); in the assay on HCT-15, above 100 µM; in the assay on SF-295, > 100 µM (inactive). Also, the GI50 with NCI-H23, in the assay on CAKI-1, in the assay with UACC-62, in the assay on HCC 2998, in the assay on TK-10 and in the assay on NCI/ADR-RES was > 100 µM (inactive) in each case. Also, the GI50 in the assay on U-251, in the assay on OVCAR-4, with OVCAR-8, with MOLT-4, in the assay with ACHN and with Hs-578T was > 100 µM (inactive) each time. The GI50 in the assay with A549 was > 100 µM (inactive).

For the molecule `COCOCC[C@@H]1CC=CC(NC(=O)OCc2ccccc2)C1/C=C/C(=O)CCC1OCCO1` (some centres not stated), the GI50 is 3.79 µM (inactive) in the assay on SR; 46.7 µM (inactive) in the assay with NCI-H226; 50.1 µM (inactive) in the assay on EKVX; 16.4 µM (inactive) with NCI-H522; 16.4 µM in the assay with HCT-15; 48.1 µM (inactive) in the assay with SF-295. The GI50 is 37.6 µM (inactive) in the assay on NCI-H23; 44.2 µM (inactive) with CAKI-1; 25.5 µM (inactive) with UACC-62; > 63.7 µM (inactive) with HCC 2998; 46.8 µM (inactive) in the assay on TK-10; 25.7 µM (inactive) in the assay on U-251. For the same molecule, the GI50 was 29 µM (inactive) in the assay on OVCAR-4; 19.1 µM (inactive) in the assay on OVCAR-8; 10.5 µM (inactive) in the assay on MOLT-4; 36.6 µM (inactive) with ACHN; 75.5 µM (inactive) with A549.

As for `CCN(CC)CCCOc1cc2c(cc1OC)C(=O)N1CCC[C@H]1C=N2`, the GI50 in the assay on SR was 29.2 µM (inactive); with NCI-H226, 24.4 µM (inactive); in the assay on EKVX it was 68.4 µM (inactive); in the assay on NCI-H522, 11.4 µM (inactive); with HCT-15, 41.5 µM; in the assay on SF-295, 28.8 µM (inactive). For the same molecule, the GI50 in the assay on CAKI-1 is 18.2 µM (inactive); with UACC-62, 21.4 µM (inactive); in the assay with TK-10, 61.8 µM (inactive); with NCI/ADR-RES, > 100 µM (inactive); in the assay with U-251 it was 26.4 µM (inactive); with OVCAR-4, 8.38 µM (inactive). Moreover, the GI50 was 40.8 µM (inactive) with OVCAR-8; 19.5 µM (inactive) in the assay on MOLT-4; 29.6 µM (inactive) in the assay on ACHN; 71.1 µM (inactive) in the assay on Hs-578T; > 100 µM (inactive) with A549.
